Measurements from paper PMC7719179, “Small molecule inhibition of Dynamin-dependent endocytosis targets multiple niche signals and impairs leukemia stem cells” (Nature Communications, 2020).
“And” between values parts separate entries of the source, which are not always exact repeats. Identical values can stand only once.

Tests used:
Type in all cases: cell-based, mouse
Lmo2^Tg DN3a thymocytes = assay: Absolute numbers of co-cultured Lmo2^Tg DN3a thymocytes after in vitro treatment; settings: 72 h, Dynole 34-2 0.2 μM, Ruxolitinib 0.2 μM, DAPT 0.1 μM
Procedure: Pre-leukemic and leukemic thymocytes were purified by flow cytometry and co-cultured on GFP-positive OP9 and OP9-DL1 stromal cell lines, as described previously. Thymocytes were co-cultured in reconstituted alpha-MEM medium (#12318, Gibco, Grand Island NY, USA) supplemented with 20% FCS (#12318), HEPES 10 mM (#15630-080), sodium pyruvate 1 mM (#11360-070), β-mercaptoethanol 55 μM (#21985-023), Glutamax 2 mM (#15750-060), 1% Penicillin/Streptomycin (#15140-122), 5 ng/mL rmFLT-3 ligand (#250-31 L, Pepro Tech), 5 ng/mL rmIL-7 (#217-17, Pepro Tech) and 25 ng/mL rmSCF (#250-03, Pepro Tech). […]

[1] = tested on: Hes1 in leukemic DN3a cells from primary Lmo2^Tg T-ALL; assay: Notch1 (DL1)-induced Hes1 in leukemic DN3a cells from primary Lmo2^Tg T-ALL
Procedure: (§1) Phosphoflow analysis was performed as previously described. Briefly, 2 × 10^6 cells stained for surface markers were subsequently resuspended into PBS 1× + 4% v/v paraformaldehyde and incubated for 10 min at 4 °C for fixation. Fixed cells were washed twice using PBS 1×, then resuspended in pre-chilled at −20 °C Perm Buffer III (BD Pharmingen) and incubated 30 min at 4 °C for permeabilization. Cells were washed twice using PBS 1× and incubated overnight at 4 °C in PBS 1× + 2% v/v fetal calf serum (FCS) with Cell Signalling purified antibodies (Genesearch Pty Ltd, Arundel QLD, Australia) against pSTAT5 (Tyr694; #9359), phospho-p38 MAPK (Thr180/Tyr182; #4511), phospho-p44/42 (Erk1/2; #9102), phospho-S6 (Ser235/236; #4856) and phospho-Akt (Ser473; #9271) or isotype control. For intracellular HES1 detection, cells stained for surface markers were subsequently fixed and permeabilized using the BD Cytofix/Cytoperm^TM Kit and incubated overnight at 4 °C in PBS 1× + 2% v/v FCS with a purified antibody against HES1 (D6PU; #11988, Cell Signalling) or isotype control. After staining with primary antibodies for phosphoflow or intracellular detection, cells were incubated in permeabilization buffer with donkey Alexa Fluor 488-conjugated anti-rabbit secondary antibody (A-21206, lot #1910751, Molecular Probes, Invitrogen) or goat Alexa Fluor 546-conjugated anti-rabbit secondary antibody (A-11035, lot #1904467, Molecular Probes, Invitrogen) for 1 h on ice, and washed twice in PBS 1×. Fluorescence-activated cell sorting (FACS) analysis was performed using LSRII and LSR Fortessa cytometers, following the gating strategies described in Supplementary Fig. 11. Cell sorting was performed with a FACSAria or BD Influx.
For in vitro NOTCH1 signalling activation assays, cells were seeded on OP9 and OP9-DL1 stromal cell lines as described in the co-culture assays section and incubated overnight with either Dynole 34-2 or Ruxolitinib or DAPT resuspended in DMSO. Harvested cells were washed twice using cold PBS 1× and incubated with 25 ng/mL Rat IgG (Sigma-Aldrich Pty Ltd, Castle Hill NSW, Australia) with a PE-conjugated antibody for detection of NOTCH1 for 1 h on ice, as described in the FACS analysis section. PE-conjugated isotype was used as negative control. Cells were washed twice, fixed and analysed for intracellular HES1 detection by flow cytometry as described in the FACS analysis section. The analysis was performed in triplicate and the MFI observed in thymocytes co-cultured on OP9 cells was reported as 100%.

[2] = tested on: pStat5 in leukemic DN3a cells from primary Lmo2^Tg T-ALL; assay: IL-7-induced pStat5 in leukemic DN3a cells from primary Lmo2^Tg T-ALL
Procedure: as §1
For in vitro IL-7 stimulation assays, cells were starved in serum-free DMEM at 37 °C, then incubated with either vehicle or Dynole 34-2 or Ruxolitinib (INCB018424; #S1378, Selleckchem), or DAPT (GSI-IX; #S2215, Selleckchem) resuspended in DMSO for 1 h. Thymocytes were subsequently stimulated with 25 ng/mL IL-7 at 37 °C for 20 min and washed twice using cold PBS 1×. Cells were incubated with 25 ng/mL Rat IgG (Sigma-Aldrich Pty Ltd, Castle Hill NSW, Australia) and with a PE-conjugated antibody for detection of IL-7R (CD127) for 1 h on ice, as described in the FACS analysis section. PE-conjugated isotype was used as negative control. Cells were washed twice, fixed and phosphoflow analysis performed as described in the FACS analysis section. The analysis was performed in triplicate and the mean fluorescence intensity (MFI) observed without stimulation was reported as 100%.

[3] = leukemic DN3a cells of TALL249, Notch1 (DL1) stimulation
[4] = leukemic DN3a cells of TALL257, Notch1 (DL1) stimulation
[5] = leukemic DN3a cells of TALL273, Notch1 (DL1) stimulation
[6] = leukemic DN3a cells of TALL582, Notch1 (DL1) stimulation
[7] = leukemic DN3a cells of TALL588, Notch1 (DL1) stimulation
[8] = leukemic DN3a cells of TALL742, Notch1 (DL1) stimulation
[9] = leukemic DN3a cells of TALL249, IL-7 stimulation
[10] = leukemic DN3a cells of TALL257, IL-7 stimulation
[11] = leukemic DN3a cells of TALL273, IL-7 stimulation
[12] = leukemic DN3a cells of TALL582, IL-7 stimulation
[13] = leukemic DN3a cells of TALL588, IL-7 stimulation
[14] = leukemic DN3a cells of TALL742, IL-7 stimulation

SMILES | Hes1 (MFI) [1, 3] | Hes1, FOLD over unstimulated [1, 3] | Hes1 (MFI) [1, 4] | Hes1, FOLD over unstimulated [1, 4] | Hes1 (MFI) [1, 5] | Hes1, FOLD over unstimulated [1, 5] | Hes1 (MFI) [1, 6] | Hes1, FOLD over unstimulated [1, 6] | Hes1 (MFI) [1, 7] | Hes1, FOLD over unstimulated [1, 7] | Hes1 (MFI) [1, 8] | Hes1, FOLD over unstimulated [1, 8] | pStat5 (MFI) [2, 9] | pStat5, FOLD over unstimulated [2, 9] | pStat5 (MFI) [2, 10] | pStat5, FOLD over unstimulated [2, 10] | pStat5 (MFI) [2, 11] | pStat5, FOLD over unstimulated [2, 11] | pStat5 (MFI) [2, 12] | pStat5, FOLD over unstimulated [2, 12] | other results
C[C@H](NC(=O)Cc1cc(F)cc(F)c1)C(=O)N[C@H](C(=O)OC(C)(C)C)c1ccccc1 [DAPT, N-[N-(3,5-Difluorophenacetyl)-L-alanyl]-S-phenylglycine t-butyl ester] | 6973 MFI | 0.92 fold | 4801 MFI | 0.84 fold | 7737 MFI | 0.92 fold | 5294 MFI | 0.98 fold | 6134 MFI | 1.12 fold | 7313 MFI | 0.93 fold | 15113 MFI | 3.80 fold | 2628 MFI | 1.69 fold | 2744 MFI | 1.22 fold | 34040 MFI | 0.89 fold | Absolute numbers DN3a cells (Lmo2^Tg DN3a thymocytes): 26800 and 17800 and 27000 and 25800 and 24600; pStat5 (MFI) [2, 13]: 3980 MFI; pStat5, FOLD over unstimulated [2, 13]: 1.55 fold; pStat5 (MFI) [2, 14]: 7661 MFI; pStat5, FOLD over unstimulated [2, 14]: 1.35 fold
CCCCCCCCNC(=O)C(C#N)=Cc1cn(CCCN(C)C)c2ccccc12 [Dynole 34-2, 2-Cyano-N-octyl-3-(1-(3-dimethylaminopropyl)-1H-indol-3-yl)-acrylamide] | 7095 MFI | 0.94 fold | 5988 MFI | 1.05 fold | 7679 MFI | 0.92 fold | 5082 MFI | 0.94 fold | 7974 MFI | 1.46 fold | 7594 MFI | 0.96 fold | 3097 MFI | 0.78 fold | 1676 MFI | 1.08 fold | 2251 MFI | 1.00 fold | 15189 MFI | 0.40 fold | Absolute numbers DN3a cells (Lmo2^Tg DN3a thymocytes): 28200 and 18800 and 27200 and 23300 and 23200; pStat5 (MFI) [2, 13]: 2662 MFI; pStat5, FOLD over unstimulated [2, 13]: 1.03 fold; pStat5 (MFI) [2, 14]: 5864 MFI; pStat5, FOLD over unstimulated [2, 14]: 1.03 fold
N#CC[C@H](C1CCCC1)n1cc(-c2ncnc3[nH]ccc23)cn1 [Ruxolitinib] | 8215 MFI | 1.09 fold | 8036 MFI | 1.41 fold | 8741 MFI | 1.04 fold | 6452 MFI | 1.20 fold | 8104 MFI | 1.48 fold | 10321 MFI | 1.31 fold | 2437 MFI | 0.61 fold | 2111 MFI | 1.36 fold | 2300 MFI | 1.02 fold | 33429 MFI | 0.88 fold | pStat5 (MFI) [2, 13]: 3772 MFI; pStat5, FOLD over unstimulated [2, 13]: 1.47 fold; pStat5 (MFI) [2, 14]: 5460 MFI; pStat5, FOLD over unstimulated [2, 14]: 0.96 fold
